Source: patent publication US20250109370A1, “METHOD FOR PRODUCING CELL SUPPORT COMPOSITE, METHOD FOR PRODUCING DRUG EVALUATION APPARATUS, DRUG EVALUATION METHOD, AND DRUG EVALUATION APPARATUS” (NIKKISO CO., LTD., priority 2022, published 2025)

Experiments:
OCT2 = target: T1, OCT2 (Homo sapiens, UniProt O15244); assay: Membrane transportation evaluation using Transwell: cellular intake of radiolabeled Metformin by monolayer of re-seeded aggregate-cultured cells (Test 7); type: in vitro ADME
T1 sequence (O15244 1-555): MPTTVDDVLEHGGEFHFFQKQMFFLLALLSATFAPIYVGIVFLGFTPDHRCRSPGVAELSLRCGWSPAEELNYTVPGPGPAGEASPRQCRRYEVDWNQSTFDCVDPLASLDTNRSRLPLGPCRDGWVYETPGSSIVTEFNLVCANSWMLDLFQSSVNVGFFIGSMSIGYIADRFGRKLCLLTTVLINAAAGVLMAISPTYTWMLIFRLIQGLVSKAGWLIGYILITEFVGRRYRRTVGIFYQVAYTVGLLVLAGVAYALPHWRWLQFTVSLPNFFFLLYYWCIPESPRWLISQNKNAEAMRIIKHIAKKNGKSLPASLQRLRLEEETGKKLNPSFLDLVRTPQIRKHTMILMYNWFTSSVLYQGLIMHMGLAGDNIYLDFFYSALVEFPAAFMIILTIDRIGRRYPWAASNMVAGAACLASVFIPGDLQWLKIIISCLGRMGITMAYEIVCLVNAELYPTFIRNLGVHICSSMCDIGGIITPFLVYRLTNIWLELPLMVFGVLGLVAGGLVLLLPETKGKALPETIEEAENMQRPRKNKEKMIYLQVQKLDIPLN
Procedure: (§1) First, aggregates were formed, and a cell suspension was prepared from the aggregates to thereby re-seed the cells on the insert in the same manner as in Test 2. The seeding density was set to 4×10^4/well (12×10^4 cells/cm^2). Then, on the day after re-seeding (within 18 to 24 hours of re-seeding), membrane transport evaluation was performed using Transwell. In the membrane transport evaluation, radiolabeled Adefovir and radiolabeled Metformin were used. Adefovir is a drug as a substrate for OAT1, that is, a drug that is transported by OAT1. Metformin is a drug as a substrate for OCT2, that is, a drug that is transported by OCT2.
(§2) An assay buffer with each substrate added to a HBSS buffer was added to insert of the Transwell and treated for a predetermined time. For the Adefovir test, the treatment time was 2 minutes. For the Metformin test, the treatment time was 10 minutes. The cells were then retrieved, a cell suspension was prepared, and the radioisotopes in the cell suspension were quantified. As a result, the amount of substrate intake into the cell from the cellular apical membrane side was evaluated. The amount of substrate intake was also evaluated in the same manner when an inhibitor of OAT1, Probenecid, was added to the assay buffer and when an inhibitor of OCT2, Cimetidine, was added to the assay buffer.
(§3) The assay buffer was also added to the well of the Transwell and treated for a predetermined time. For the Adefovir test, the treatment time was 2 minutes. For the Metformin test, the treatment time was 10 minutes. The cells were then retrieved, a cell suspension was prepared, and the radioisotopes in the cell suspensions were quantified. As a result, the amount of substrate intake into the cell from the cellular basement membrane side was evaluated. The amount of substrate intake was also evaluated in the same manner when an inhibitor Probenecid was added to the assay buffer and when an inhibitor Cimetidine was added to the assay buffer.
(§4) In FIG. 15A and FIG. 15B, “A to C” indicates the amount of substrate intake into the cell from the cellular apical membrane side. […]

OAT1 = target: T2, OAT1 (Homo sapiens, UniProt Q4U2R8); assay: Membrane transportation evaluation using Transwell: cellular intake of radiolabeled Adefovir by monolayer of re-seeded aggregate-cultured cells (Test 7); type: in vitro ADME
T2 construct: Adefovir is a drug as a substrate for OAT1, that is, a drug that is transported by OAT1; host or cells: human renal proximal tubule epithelial cells, aggregate-cultured and re-seeded as a monolayer on a Transwell insert
T2 sequence (Q4U2R8 1-563): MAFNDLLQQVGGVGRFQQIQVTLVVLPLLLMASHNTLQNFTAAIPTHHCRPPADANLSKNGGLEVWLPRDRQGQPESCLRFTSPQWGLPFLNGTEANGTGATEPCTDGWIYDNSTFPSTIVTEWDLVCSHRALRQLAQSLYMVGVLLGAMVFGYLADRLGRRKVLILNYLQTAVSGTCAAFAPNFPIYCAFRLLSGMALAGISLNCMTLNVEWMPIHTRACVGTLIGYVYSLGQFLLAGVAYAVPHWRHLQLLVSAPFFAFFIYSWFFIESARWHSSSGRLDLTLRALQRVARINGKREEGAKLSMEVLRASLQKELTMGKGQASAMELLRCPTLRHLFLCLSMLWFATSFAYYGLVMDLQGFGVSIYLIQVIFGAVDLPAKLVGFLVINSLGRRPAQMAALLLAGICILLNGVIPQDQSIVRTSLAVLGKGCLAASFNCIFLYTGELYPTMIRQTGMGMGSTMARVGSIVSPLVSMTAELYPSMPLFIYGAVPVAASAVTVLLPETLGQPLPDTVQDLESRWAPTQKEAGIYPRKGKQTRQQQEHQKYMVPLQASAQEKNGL
Procedure: as §1, §2, §3, §4

transporter responsible for intake (OCT2; concluded from decrease with inhibitor Cimetidine)	substrate intake into the cells (OCT2; radiolabeled Metformin in HBSS buffer, 10 minutes, human renal proximal tubule epithelial cells 18 to 24 hours after re-seeding, FIG. 15B)	SMILES	amount of cellular intake, basement membrane side (B to C) versus apical membrane side (A to C) (OCT2; radiolabeled Metformin, 10 minutes, FIG. 15B)	transporter responsible for intake (OAT1; concluded from decrease with inhibitor Probenecid)	substrate intake into the cells (OAT1; radiolabeled Adefovir in HBSS buffer, 2 minutes, human renal proximal tubule epithelial cells 18 to 24 hours after re-seeding, FIG. 15A)	amount of cellular intake, basement membrane side (B to C) versus apical membrane side (A to C) (OAT1; radiolabeled Adefovir, 2 minutes, FIG. 15A)
due to OCT2	taken into the cells	CN(C)C(=N)N=C(N)N [Metformin]	higher from the cellular basement membrane side than from the cellular apical membrane side	–	–	–
–	–	Nc1ncnc2c1ncn2CCOCP(=O)(O)O [Adefovir]	–	due to OAT1	taken into the cells	higher from the cellular basement membrane side than from the cellular apical membrane side
